Assay [1] deals with WT mice. Kind of assay: FeCl3-induced carotid arterial thrombosis. In kind it is in vivo, mouse. The protocol:
FIG. […]) is an exemplary embodiment of B12-5 having an antithrombotic effect without prolonging tail bleeding times in mice in accordance with the present disclosure. FIG. […]): Ex vivo effects of B12-5. Wild type (WT; […] One hour later, blood was drawn, followed by isolating platelets. P-selectin exposure (FIG. 19A) and αIIbβ3 integrin activation (FIG. 19B) were assessed in flow cytometry. FIG. 19C: Platelet aggregation was measured after treatment with 0.025 U/mL thrombin. The data represent the mean±SD (n=4). FIG. 19D: The plasma levels of B12-5 were analyzed by liquid chromatography-tandem mass spectrometry (LC-MS/MS) after intravenous injection of the compound (5 μg/g BW) into WT mice and quantified by comparison with a standard curve of B12-5 (mean±SD, n=3). FIG. 19E and FIG. 19F: After laser-induced cremaster arteriolar injury, intravital microscopy was conducted with WT mice pretreated with intravenous injection of saline, eptifibatide (5 μg/g BW), vehicle, or B12-5 (5 μg/g BW). The median integrated fluorescence intensities of anti-CD42c (F platelet) and anti-fibrin (F fibrin) antibodies (n=37-42 arterioles in 6 mice per group). Quantification of the antibody signal at a different time point after laser injury. FIG. 19G: Comparison of B12-5 (5 μg/g BW) with eptifibatide (5 μg/g BW) and their respective controls in inhibiting FeCl3-induced carotid artery thrombosis in WT mice. FIG. 19H and FIG. 19I: WT mice were treated with intravenous injection of vehicle control, eptifibatide (5 μg/g BW), or B12-5 (5 μg/g BW). Thirty minutes later, tail bleeding times and Hb contents were measured after amputation of the tail tip. […] Twenty-three hours later, neurological deficits were assessed by the Bederson score and grip test, and infarct volume was measured as described in Methods. […] Twenty-three hours later, the neurological deficit and infarct volume were measured as described above. […] P values determined by unpaired Student t test (FIG. […]), FIG. 19K, and FIG. 19O) or Mann-Whitney U test (FIG. 19(E-1), FIG. 19L, FIG. 19M, FIG. 19P, and FIG. 19Q). […]

Assay [2] has as its system WT (C57BL/6) mice. Kind of assay: Intravital microscopy, laser-induced cremaster arteriolar injury, WT mice. The settings on record: iv 5 μg/g BW. Type of assay: in vivo, mouse. The protocol: Intravital microscopy was performed in a mouse model of laser-induced cremaster arteriolar injury as previously described. WT (C57BL/6), littermate WT control, and CKO and KO male mice (8-10 weeks old) were anesthetized with intraperitoneal injection of ketamine and xylazine. The cremaster muscle was exteriorized and superfused with 37° C. bicarbonate-buffered saline throughout the experiment. Arteriolar wall injury was induced by laser ablation (Photonics Instruments) as previously described. Multiple thrombi were generated in at least 3 to 4 different arterioles of 1 mouse, with new thrombi formed upstream of earlier thrombi to minimize any contribution from thrombi generated earlier in the mouse. Platelets and fibrin were visualized by infusion of DyLight 649-conjugated anti-CD42c (0.2 μg/g body weight [BW]) and Alexa Fluor 488-conjugated anti-fibrin (0.2 μg/g BW) antibodies, respectively. To detect extracellular Ero1α, Alexa Fluor 488-conjugated rabbit IgG or nonblocking anti-ERO1α antibodies (0.3 μg/g BW) were injected into WT (C57BL/6), WT control, Ero1α KO, and Ero1α CKO mice. In some experiments, wtERO1α or activity-null ERO1α-Cys94Ser (mutant ERO1α [mERO1α]; 4 μg/g BW) was infused into Ero1α KO mice before imaging. To test the effect of ERO1α inhibitors or blocking anti-ERO1α antibodies, WT (C57BL/6) mice were treated with intravenous injection of vehicle control, eptifibatide (5 μg/g BW), B12-5 (5 μg/g BW), isotype control IgGs, anti-ERO1α (15E9, 1-3 μg/g BW), or anti-PDI (BD34, 3 μg/g BW) 3 minutes before treatment with the anti-CD42c and anti-fibrin antibodies. The same dose of eptifibatide was injected every 20 minutes to maintain the inhibitory effect. […] Fluorescence and bright-field images were captured in 6 to 10 different cremaster arterioles with a diameter of 30 to 45 μm in each mouse and recorded using either an Olympus BX61W microscope with a 60×1.0 salt water immersion objective or a Zeiss Axio Examiner Z1 microscope system with a Yokogawa confocal spinning disk (CSU-W1) equipped with 4 stack laser system (405-, 488-, 561-, and 637-nm wavelengths). Images were collected with a high-speed, high-resolution camera (2304×2304 pixel format; ORCA-Fusion BT sCMOS, Hamamatsu). Time 0 was set to when image capture began on each vessel. The data were analyzed using Slidebook (version 6.0; Intelligent Imaging Innovations). Due to the significant variation between vessels in the same mouse, the result from each vessel was counted as an individual value. Representative images were chosen that most closely resemble the mean values in the quantifications.

The target in assay [3] is T1, MAO-B (Homo sapiens, UniProt P27338).
T1 sequence (P27338 1-520): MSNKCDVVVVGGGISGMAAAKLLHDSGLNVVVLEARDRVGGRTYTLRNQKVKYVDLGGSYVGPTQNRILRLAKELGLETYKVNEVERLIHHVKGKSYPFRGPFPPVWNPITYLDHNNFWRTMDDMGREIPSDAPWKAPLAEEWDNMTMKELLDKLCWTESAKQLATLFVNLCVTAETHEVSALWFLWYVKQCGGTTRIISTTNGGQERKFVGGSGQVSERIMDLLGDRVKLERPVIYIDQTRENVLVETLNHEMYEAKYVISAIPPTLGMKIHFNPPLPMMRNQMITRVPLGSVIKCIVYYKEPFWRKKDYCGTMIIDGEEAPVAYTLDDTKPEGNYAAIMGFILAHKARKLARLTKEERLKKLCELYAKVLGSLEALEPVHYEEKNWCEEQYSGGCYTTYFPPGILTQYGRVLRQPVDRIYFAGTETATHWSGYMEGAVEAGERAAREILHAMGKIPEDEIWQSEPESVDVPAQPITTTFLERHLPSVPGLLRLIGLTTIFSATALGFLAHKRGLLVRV
The settings on record: from studies; cited from earlier work.

pIC50: −log10 of the molar value. Entries after “also recorded” stand apart in the source; their conditions may differ.

For the molecule `O=C(CSc1nc(O)cc(O)n1)N1c2ccccc2Sc2ccccc21` [B12-5], in assay [1] (5 μg/g BW, vs vehicle control), the time to occlusion result is recorded as “significantly prolonged”. Also, the figures for the platelet thrombus formation entry in assay [1] (iv 5 microg/g mouse), in assay [2] and in assay [2] (listed as B112-5) were “significantly reduced”, “significantly inhibited; also recorded: significantly reduced” and “inhibit”, respectively.
Take `O=C(O)c1cc(N2N=C(C(F)(F)F)/C(=C/c3ccc(-c4ccccc4)o3)C2=O)ccc1Cl` [EN460]: the pIC50 in assay [3] was 4.51.

The values are drawn from patent US20240366624A1, “METHODS AND COMPOSITIONS FOR TREATING THROMBOTIC DISEASE” (Washington University, priority 2023, published 2024).
